Laboratory results from publication doi:10.1101/2024.02.27.582382, “Distinct roles of the major binding residues in the cation-binding pocket of MelB” (bioRxiv, 2024).
Like-named read-outs stand apart in the source and are kept apart here.

Tests used:
[1] = biological target: T1, MelBSt (melibiose permease of Salmonella enterica serovar Typhimurium) (Salmonella enterica, UniProt P30878, D55C); assay: biochemical
T1 construct: gene melB
Text: ITC on MelBSt (melibiose permease of Salmonella enterica serovar Typhimurium)

[2] = biological target: T2, MelBSt (melibiose permease of Salmonella enterica serovar Typhimurium) (Salmonella enterica, UniProt P30878); assay: ITC; assay type: binding; conditions: pH 8.5, 25 °C, Na+-free, 20 mM Tris-HCl, 100 mM choline chloride, 0.035% UDM
T2 construct: gene melB; full length, C-terminal His10 tag (plasmid pK95 delta-AH/MelBSt/CHis10), expressed in E. coli DW2; modelled residues 2-454 or 2-456
T2 sequence (P30878 whole entry, the tested form may be a part): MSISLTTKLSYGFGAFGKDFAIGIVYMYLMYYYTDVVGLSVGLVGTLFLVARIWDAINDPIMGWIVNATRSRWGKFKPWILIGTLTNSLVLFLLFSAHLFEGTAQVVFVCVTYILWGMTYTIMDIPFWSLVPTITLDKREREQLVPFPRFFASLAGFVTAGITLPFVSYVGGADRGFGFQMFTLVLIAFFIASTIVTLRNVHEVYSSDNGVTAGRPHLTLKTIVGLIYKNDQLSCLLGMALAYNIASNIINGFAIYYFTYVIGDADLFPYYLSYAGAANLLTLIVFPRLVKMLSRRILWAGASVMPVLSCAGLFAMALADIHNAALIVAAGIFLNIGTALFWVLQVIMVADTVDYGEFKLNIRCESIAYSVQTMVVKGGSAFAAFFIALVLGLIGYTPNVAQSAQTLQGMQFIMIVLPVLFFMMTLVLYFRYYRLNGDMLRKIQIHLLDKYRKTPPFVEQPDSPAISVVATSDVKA

Asp59 = Asp59 (UniProt position 59, WDAINDPIMGW); assay: ITC; conditions: cited from earlier work

T1 sequence (P30878 whole entry D55C): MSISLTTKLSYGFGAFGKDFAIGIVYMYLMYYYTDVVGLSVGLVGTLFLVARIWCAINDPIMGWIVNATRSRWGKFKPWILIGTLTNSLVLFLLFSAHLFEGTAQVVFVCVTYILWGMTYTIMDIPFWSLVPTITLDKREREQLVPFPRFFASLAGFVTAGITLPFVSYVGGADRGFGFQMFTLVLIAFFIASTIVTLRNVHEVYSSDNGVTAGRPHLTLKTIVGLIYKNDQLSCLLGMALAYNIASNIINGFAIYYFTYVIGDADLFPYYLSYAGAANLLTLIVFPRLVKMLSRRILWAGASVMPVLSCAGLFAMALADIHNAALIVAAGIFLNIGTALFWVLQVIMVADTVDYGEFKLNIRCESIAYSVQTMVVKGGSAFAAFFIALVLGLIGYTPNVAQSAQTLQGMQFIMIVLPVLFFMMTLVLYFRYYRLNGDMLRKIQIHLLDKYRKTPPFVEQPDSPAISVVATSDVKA

Compound: OC[C@H]1O[C@H](OC[C@H]2OC(O)[C@H](O)[C@@H](O)[C@@H]2O)[C@H](O)[C@@H](O)[C@H]1O (some centres unmarked) [melibiose]
- Kd ([1]; read-out: Melibiose, pH 7.5, 25 °C, no Na+ or Li+, UDM): 5.82 ± 0.46 mM
- Kd [2]: 8.5 ± 0.21 mM

Compound: O=[N+]([O-])c1ccc(O[C@H]2O[C@H](CO)[C@H](O)[C@H](O)[C@H]2O)cc1 [α-NPG, 4-nitrophenyl-α-D-galactopyranoside]
- Kd [1]: 0.0151 ± 0.00186 mM

Compound: Melibiose permease MelB (MelBSt) (Salmonella enterica serovar Typhimurium)
- pKa (Asp59; absence of melibiose (sugar-free)): 6.25
- pKa (Asp59; presence of melibiose): approximately 6.5
